How the values were obtained:
[1] = test system: Balb/c splenic B cells; assay: B cell activation and proliferation assay (Alamar Blue); format: cell-based; conditions: Mus musculus, 'Less than 100 nM'
Procedure: The ability of one or more subject compounds to inhibit B cell activation and proliferation is determined according to standard procedures known in the art. For example, an in vitro cellular proliferation assay is established that measures the metabolic activity of live cells. The assay is performed in a 96 well microtiter plate using Alamar Blue reduction. Balb/c splenic B cells are purified over a Ficoll-Paque™ PLUS gradient followed by magnetic cell separation using a MACS B cell Isolation Kit (Miletenyi). Cells are plated in 90 μl at 50,000 cells/well in B Cell Media (RPMI+10% FBS+Penn/Strep+50 μM bME+5 mM HEPES). A compound provided herein is diluted in B Cell Media and added in a 10 μl volume. Plates are incubated for 30 min at 37° C. and 5% CO2 (0.2% DMSO final concentration). A 50 μl B cell stimulation cocktail is then added containing either 10 μg/ml LPS or 5 μg/ml F(ab′)2 Donkey anti-mouse […] plus 2 ng/ml recombinant mouse IL4 in B Cell Media. Plates are incubated for 72 hours at 37° C. and 5% CO2. A volume of 15 μL of Alamar Blue reagent is added to each well and plates are incubated for 5 hours at 37° C. and 5% CO2. Alamar Blue fluoresce is read at 560Ex/590Em, and IC50 or EC50 values are calculated using GraphPad Prism 5.

[2] = target: T1, PI3Kα (Homo sapiens, UniProt P42336); assay: PI3 Kinase HTRF assay, PI3Kα; format: biochemical; conditions: 10 μM PIP2, 10 μM ATP; 'Greater than 10 μM' and 'Greater than 1 μM to 10 μM'; read-out: PI3K α IC50
T1 construct: purchased Millipore Corporation 14-602-K
From the text: (§1) A PI3-Kinase HTRF® assay kit (cat No. 33-016) purchased from Millipore Corporation was used to screen compounds provided herein. This assay used specific, high affinity binding of the GRP1 pleckstrin homology (PH) domain to PIP3, the product of a Class 1A or 1B PI3 Kinase acting on its physiological substrate PIP2. During the detection phase of the assay, a complex was generated between the GST-tagged PH domain and biotinylated short chain PIP3. The biotinylated PIP3 and the GST-tagged PH domain recruited fluorophores (Streptavidin-Allophycocyanin and Europium-labeled anti-GST respectively) to form the fluorescence resonance energy transfer (FRET) architecture, generating a stable time-resolved FRET signal. The FRET complex was disrupted in a competitive manner by non-biotinylated PIP3, a product formed in the PI3 Kinase assay.
(§2) PI3 Kinase α, β, γ and δ activity was assayed using the PI3 Kinase HTRF® assay kit (catalogue No. 33-016) purchased from Millipore Corporation. Purified recombinant PI3Kα (catalogue No. 14-602-K), PI3Kβ (catalogue No. 14-603-K), PI3Kγ (catalogue No. 14-558-K) and PI3Kδ (catalogue No. 14-604-K) were obtained from Millipore Corporation. Purified recombinant PI3K enzyme was used to catalyze the phosphorylation of phosphatidylinositol 4,5-bisphosphate (PIP2 at 10 μM) to phosphatidylinositol 3,4,5-trisphosphate (PIP3) in the presence of 10 μM ATP. The assay was carried out in 384-well format and detected using a Perkin Elmer EnVision Xcite Multilabel Reader. Emission ratios were converted into percent inhibitions and imported into GraphPad Prism software. The concentration necessary to achieve inhibition of enzyme activity by 50% (IC50) was calculated using concentrations ranging from 20 μM to 0.1 nM (12-point curve). IC50 values were determined using a nonlinear regression model available in GraphPad Prism 5. […]

[3] = target: PI3Kβ; assay: PI3 Kinase HTRF assay, PI3Kβ; format: biochemical, human; conditions: 10 μM PIP2, 10 μM ATP; 'Greater than 10 μM' and 'Greater than 1 μM to 10 μM'; read-out: PI3K β IC50
From the text: as §1
as §2, with “Purified recombinant PI3Kα (catalogue No. 14-602-K), PI3Kβ (catalogue No. 14-603-K), PI3Kγ (catalogue No. 14-558-K) and PI3Kδ (catalogue No. 14-604-K) were obtained from Millipore Corporation.” left out, “The concentration necessary to achieve inhibition of enzyme activity by 50% (IC50) was calculated using concentrations ranging from 20 μM to 0.1 nM (12-point curve).” left out

PI3Kβ, sequence (Q8BTI9 whole entry): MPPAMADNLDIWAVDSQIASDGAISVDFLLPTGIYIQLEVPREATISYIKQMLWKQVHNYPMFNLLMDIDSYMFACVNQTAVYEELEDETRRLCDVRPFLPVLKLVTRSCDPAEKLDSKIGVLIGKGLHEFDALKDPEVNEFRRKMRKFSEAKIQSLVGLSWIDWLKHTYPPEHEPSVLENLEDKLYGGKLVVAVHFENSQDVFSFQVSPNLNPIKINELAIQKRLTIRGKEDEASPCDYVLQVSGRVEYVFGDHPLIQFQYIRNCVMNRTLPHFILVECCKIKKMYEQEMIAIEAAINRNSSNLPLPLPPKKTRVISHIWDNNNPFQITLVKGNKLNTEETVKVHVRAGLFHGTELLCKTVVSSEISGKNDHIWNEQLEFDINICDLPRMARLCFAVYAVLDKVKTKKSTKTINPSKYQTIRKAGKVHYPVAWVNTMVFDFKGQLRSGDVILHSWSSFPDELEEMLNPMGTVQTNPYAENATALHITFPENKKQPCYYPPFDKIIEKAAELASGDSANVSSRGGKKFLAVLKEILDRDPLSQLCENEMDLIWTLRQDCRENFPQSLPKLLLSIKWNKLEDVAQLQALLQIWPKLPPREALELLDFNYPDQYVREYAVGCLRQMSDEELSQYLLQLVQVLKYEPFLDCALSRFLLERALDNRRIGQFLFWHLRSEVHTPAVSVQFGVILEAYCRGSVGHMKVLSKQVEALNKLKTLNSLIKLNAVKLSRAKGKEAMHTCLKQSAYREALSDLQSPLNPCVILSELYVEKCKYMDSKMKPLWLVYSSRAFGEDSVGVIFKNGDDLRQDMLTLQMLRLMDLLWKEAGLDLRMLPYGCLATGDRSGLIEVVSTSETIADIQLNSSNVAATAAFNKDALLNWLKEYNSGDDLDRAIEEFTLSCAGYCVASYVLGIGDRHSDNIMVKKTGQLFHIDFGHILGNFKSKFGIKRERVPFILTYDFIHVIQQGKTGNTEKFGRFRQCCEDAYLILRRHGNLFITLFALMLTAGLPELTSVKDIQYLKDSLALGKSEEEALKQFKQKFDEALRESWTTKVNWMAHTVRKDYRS
T1 sequence (P42336 whole entry): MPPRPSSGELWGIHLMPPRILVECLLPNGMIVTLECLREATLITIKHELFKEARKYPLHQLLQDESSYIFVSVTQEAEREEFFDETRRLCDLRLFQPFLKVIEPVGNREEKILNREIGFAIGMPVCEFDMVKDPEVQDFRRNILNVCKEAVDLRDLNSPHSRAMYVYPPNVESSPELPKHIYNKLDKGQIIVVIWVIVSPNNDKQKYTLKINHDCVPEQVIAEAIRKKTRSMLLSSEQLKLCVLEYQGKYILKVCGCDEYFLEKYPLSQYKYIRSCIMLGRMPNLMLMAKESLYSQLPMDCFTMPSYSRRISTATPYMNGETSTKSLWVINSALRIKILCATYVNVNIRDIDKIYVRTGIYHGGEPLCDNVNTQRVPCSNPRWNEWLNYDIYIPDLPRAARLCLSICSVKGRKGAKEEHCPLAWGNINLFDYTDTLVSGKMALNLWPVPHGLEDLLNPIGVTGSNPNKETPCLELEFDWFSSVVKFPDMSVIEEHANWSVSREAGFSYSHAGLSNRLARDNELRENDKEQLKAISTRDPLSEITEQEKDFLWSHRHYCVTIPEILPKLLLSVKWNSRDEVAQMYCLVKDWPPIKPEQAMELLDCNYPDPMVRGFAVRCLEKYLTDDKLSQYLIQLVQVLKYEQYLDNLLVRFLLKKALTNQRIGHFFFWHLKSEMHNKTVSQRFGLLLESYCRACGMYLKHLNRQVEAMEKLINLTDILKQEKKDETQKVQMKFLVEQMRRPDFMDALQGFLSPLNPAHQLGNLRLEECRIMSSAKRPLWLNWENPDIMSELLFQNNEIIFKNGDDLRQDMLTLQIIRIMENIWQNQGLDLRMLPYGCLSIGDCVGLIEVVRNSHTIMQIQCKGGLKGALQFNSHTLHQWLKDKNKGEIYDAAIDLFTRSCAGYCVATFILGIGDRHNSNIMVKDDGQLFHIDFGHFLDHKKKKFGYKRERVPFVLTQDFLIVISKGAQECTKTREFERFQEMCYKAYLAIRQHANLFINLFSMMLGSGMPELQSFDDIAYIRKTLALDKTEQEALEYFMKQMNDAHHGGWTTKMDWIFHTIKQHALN
T1 sequence (P27986 whole entry partner): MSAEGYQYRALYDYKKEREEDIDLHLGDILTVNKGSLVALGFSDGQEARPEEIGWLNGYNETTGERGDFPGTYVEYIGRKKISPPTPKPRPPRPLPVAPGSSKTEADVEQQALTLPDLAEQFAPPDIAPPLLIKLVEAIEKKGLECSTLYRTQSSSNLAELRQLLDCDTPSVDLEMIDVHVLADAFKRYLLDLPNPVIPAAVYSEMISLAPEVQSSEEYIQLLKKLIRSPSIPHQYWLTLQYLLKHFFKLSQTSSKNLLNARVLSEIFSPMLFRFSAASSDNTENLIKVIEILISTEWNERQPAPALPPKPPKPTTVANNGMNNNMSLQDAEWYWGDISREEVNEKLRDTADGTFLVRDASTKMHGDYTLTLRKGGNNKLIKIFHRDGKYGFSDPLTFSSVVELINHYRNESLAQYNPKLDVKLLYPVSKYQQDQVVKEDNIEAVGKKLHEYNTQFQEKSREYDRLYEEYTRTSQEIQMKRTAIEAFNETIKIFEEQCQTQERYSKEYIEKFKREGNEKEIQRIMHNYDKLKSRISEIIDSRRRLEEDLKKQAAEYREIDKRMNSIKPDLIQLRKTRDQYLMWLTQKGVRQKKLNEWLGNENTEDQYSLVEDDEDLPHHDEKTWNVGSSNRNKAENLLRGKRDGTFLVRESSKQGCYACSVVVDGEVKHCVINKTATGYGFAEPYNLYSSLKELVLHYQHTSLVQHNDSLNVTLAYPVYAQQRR

Structure (SMILES) | EC50 [1] | IC50 [2] | IC50 [3]
C[C@H](Nc1ncnc2[nH]cnc12)c1cc2cccc(C(F)(F)F)c2c(=O)n1-c1ccccc1 [III-3] | < 0.1 µM | 1 to 10 µM | –
COc1ncc(-c2cccc3cc([C@H](C)Nc4ccnn5ccnc45)n(-c4ccccc4)c(=O)c23)cn1 [II-48] | – | 1 to 10 µM | > 10 µM
C[C@H](Nc1ccnn2ccnc12)c1cc2cccc(Cl)c2c(=O)n1-c1cccc(F)c1 [II-14] | < 0.1 µM | 1 to 10 µM | –
C[C@H](Nc1ccnn2ccnc12)c1cc2scc(Cl)c2c(=O)n1-c1ccccc1 [II-22] | – | 1 to 10 µM | –
C[C@H](Nc1nc(N)nc2cccnc12)c1cc2cccc(-c3cnn(C)c3)c2c(=O)n1-c1ccccc1 [Compound I-36] | – | 1 to 10 µM | > 10 µM
C[C@H](Nc1ncnn2ccnc12)c1cc2cccc(C(F)(F)F)c2c(=O)n1-c1ccccc1 [III-27] | < 0.1 µM | 1 to 10 µM | –
C[C@H](Nc1ccnn2ccnc12)c1cc2cccc(Cl)c2c(=O)n1C1CC1 [II-11] | < 0.1 µM | 1 to 10 µM | –
C[C@H](Nc1ncnc2cccnc12)c1cc2cccc(Cl)c2c(=O)n1-c1ccccc1 [Compound I-2] | < 0.1 µM | 1 to 10 µM | –
C[C@H](Nc1ncnc2scnc12)c1cc2cccc(C(F)(F)F)c2c(=O)n1-c1cccc(F)c1 [III-10] | < 0.1 µM | 1 to 10 µM | –
C[C@H](Nc1ccnc2scnc12)c1cc2cccc(C(F)(F)F)c2c(=O)n1-c1ccccc1 [III-36, (S)-2-phenyl-3-(1-(thiazolo[5,4-b]pyridin-7-ylamino)ethyl)-8-(trifluoromethyl)isoquinolin-1(2H)-one] | < 0.1 µM | 1 to 10 µM | –
C[C@H](Nc1ncnn2ccnc12)c1cc2cccc(Cl)c2c(=O)n1-c1cccc(F)c1 [IV-13] | – | 1 to 10 µM | 1 to 10 µM
Cc1nn(C)cc1-c1cccc2cc([C@H](C)Nc3ncnc4cccnc34)n(-c3ccccc3)c(=O)c12 [Compound I-47] | – | 1 to 10 µM | > 10 µM
C[C@H](Nc1ncnc2ccnn12)c1cc2cccc(Cl)c2c(=O)n1-c1ccccc1 [II-24] | – | 1 to 10 µM | –
C[C@H](Nc1ncnc2cccnc12)c1cc2scc(Cl)c2c(=O)n1-c1ccccc1 [Compound I-29] | – | 1 to 10 µM | –
C[C@H](Nc1nc(N)nc2cccnc12)c1cc2cccc(C(F)(F)F)c2c(=O)n1-c1ccccc1 [III-23] | – | 1 to 10 µM | –
C[C@H](Nc1ncnc2cccnc12)c1cc2cccc(C(F)(F)F)c2c(=O)n1-c1ccccc1 [III-4] | < 0.1 µM | 1 to 10 µM | –
C[C@H](Nc1nc(N)nc2[nH]cnc12)c1cc2cccc(C(F)(F)F)c2c(=O)n1-c1cccc(F)c1 [III-30] | < 0.1 µM | 1 to 10 µM | –
C[C@H](Nc1nc(N)nc2scnc12)c1cc2cccc(C(F)(F)F)c2c(=O)n1-c1ccccc1 [III-25] | – | 1 to 10 µM | 1 to 10 µM
C[C@H](Nc1nc(N)ncc1C#N)c1cc2cccc(C(F)(F)F)c2c(=O)n1-c1ccccc1 [III-44] | < 0.1 µM | 1 to 10 µM | –
C[C@H](Nc1ncnn2ccnc12)c1cc2cccc(Cl)c2c(=O)n1-c1ccccc1 [IV-12] | – | 1 to 10 µM | –
C[C@H](Nc1ncnc(N)c1C#N)c1cc2cccc(C(F)(F)F)c2c(=O)n1-c1cccc(F)c1 [III-49] | < 0.1 µM | 1 to 10 µM | –
CNc1cccc2cc([C@H](C)Nc3nc(N)nc4cccnc34)n(-c3ccccc3)c(=O)c12 [Compound I-101] | < 0.1 µM | – | > 10 µM

Reference: patent US8969363B2, “Heterocyclic compounds and uses thereof” (Infinity Pharmaceuticals, Inc., priority 2011, dated 2015)
